Source: patent US12377176B2, “Cancer diagnostic imaging agents” (Technische Universität München, priority 2019, dated 2025)
Several values for one entry are separate records, joined by “and”; a condition that tells them apart may be missing. Equal values may be shown once. Read-outs that look alike come from different tables or passages of the source.

How the values were obtained:
[1] = tested on: LNCaP cells; assay: Internalization into LNCaP cells, relative to ([125I]I-BA)KuE; type: cell-based
Description: Data is corrected for non-specific binding ([…]) and expressed as mean±SD (n=3).
Subsequent to the removal of the culture medium, the cells were washed once with 500 μL DMEM-F12 (5% BSA) and left to equilibrate for at least 15 min at 37° C. in 200 μL DMEM-F12 (5% BSA). Each well was treated with either 25 μL of either DMEM-F12 (5% BSA) or a 100 μM PMPA solution for blockade. Next, 25 μL of the ^68Ga/^18F-labeled PSMA inhibitor (5.0 nM) was added and the cells incubated at 37° C. for 60 min. The experiment was terminated by placing the 24-well plate on ice for 3 min and consecutive removal of the medium. Each well was rinsed with 250 μL HBSS and the fractions from these first two steps combined, representing the amount of free radioligand. Removal of surface bound activity was accomplished by incubation of the cells with 250 μL of ice-cold PMPA (10 μM in PBS) solution for 5 min and rinsed again with another 250 μL of ice-cold PBS. The internalized activity was determined by incubation of the cells in 250 μL 1 M NaOH and the combination with the fraction of a subsequent wash step with 250 μL 1.0 M NaOH. Each experiment (control and bloackde) was performed in triplicate. Free, surface bound and internalized activity was quantified in a γ-counter. […] Data were corrected for non-specific internalization and normalized to the specific-internalization observed for the radioiodinated reference compound.

[2] = Metabolic stability and 18F/19F isotopic exchange in mouse urine (radio-HPLC, radio-TLC); type: in vitro ADME, mice
Description: Analytical reversed-phase high pressure chromatography (RP-HPLC) were performed using Shimadzu gradient systems (Shimadzu Deutschland GmbH, Neufahrn, Germany), equipped with a SPD-20A UV/Vis detector (220 nm, 254 nm). […] Eluents for all HPLC operations were water (solvent A) and acetonitrile (solvent B), both containing 0.1% trifluoroacetic acid. […] The gradient for all HPLC operations was: 5% B isocratic 0-3 min, 25-35% B 3-43 min, 95-95% B 43-48 min.
For radio-thin-layer chromatography, aluminum sheets coated with silica gel 60 RP-18 F254s were used with a mobile phase consisting of a 3:2 mixture (v/v) of MeCN in H2O supplemented with 10% of 2 M aqueous NaOAc and 1% of TFA. Analysis was performed using either a Scan-RAM radio-TLC detector (LabLogic Systems Ltd., Sheffield, United Kingdom) or a CR 35 BIO phosphorimager (Duerr Medical GmbH, Bietigheim-Bissingen, Germany).
For in vivo μmetabolism studies, 8-12 MBq (<0.6 nmol) of the respective ^18F-labeled ligand (rhPSMA-7.1-7.4) was injected into the tail vein of female healthy CB17-SCID mice (n=4). Mice were left under anesthesia for 30 min and the urine was collected using a bladder catheter. Urine samples were pooled and centrifuged for 5 min at 9000 rpm to remove suspended solids. The supernatant was directly used for radio-HPLC analysis with the above mentioned conditions. […]

[3] = tested on: LNCaP tumor-bearing CB-17 SCID mice; settings: male, mouse, in vivo, 1 h
Description: (§1) To establish tumor xenografts, LNCaP cells (10^7 cells/200 μL) were suspended in a 1:1 mixture (v/v) of Dulbecco modified Eagle medium/Nutrition Mixture F-12 with Glutamax-I (1:1) and Matrigel (BD Biosciences, Germany), and inoculated subcutaneously onto the right shoulder of 6-8 weeks old CB17-SCID mice (Charles River, Sulzfeld, Germany). Mice were used for when tumors had grown to a diameter of 5-8 mm (3-4 weeks after inoculation).
(§2) Approximately 1-2 MBq (<0.2 nmol) of the ^18F-labeled PSMA inhibitor was injected into the tail vein of LNCaP tumor-bearing male CB-17 SCID mice and sacrificed after 1 h post injection (n=4-5). Selected organs were removed, weighted and measured in a γ-counter

[4] = tested on: LNCaP tumor-bearing CB-17 SCID mice; assay: Biodistribution in LNCaP tumor-bearing SCID mice, 1 h p.i., with or without PMPA
Description: as §1, §2

In the case of CC(C)(C)[Si](F)(c1ccc(C(=O)NC[C@@H](NC(=O)CC[C@@H](C(=O)O)N2CCN(CC(=O)O)CCN(CC(=O)O)CCN(CC(=O)O)CC2)C(=O)N[C@H](CCCCNC(=O)CCC(=O)NCCC[C@@H](NC(=O)CC[C@H](NC(=O)N[C@@H](CCC(=O)O)C(=O)O)C(=O)O)C(=O)O)C(=O)O)cc1)C(C)(C)C [rhPSMA7.3, [^19F][^natGa]D-Dap-S-DOTAGA-rhPSMA7, metal not drawn], the “internalization rate Mean” value ([1]; LNCaP cells, 1 h, 37 °C, c=0.5 nM, mean) is reported as 161.41 % of [^125I]IB-KuE, the individual internalization rates ([1]; LNCaP cells, 1 h, 37 °C, c=0.5 nM, single measurements) is reported as 156.6 % of [^125I]IB-KuE and 156.0 % of [^125I]IB-KuE and 171.7 % of [^125I]IB-KuE and the internalization ([1]; mean ± SD as quoted in the discussion) is reported as 161.41%±8.88. For the same molecule, the “[F-18]rhPSMA7.3 share of radioactivity in urine” value ([2]; after addition of 5 nmol [F-19]rhPSMA7-3, room temperature) was 85.8%, the “[F-18]rhPSMA7.3 share of radioactivity in urine” value ([2]; radioactive urine before addition of cold [F-19]rhPSMA7.3) was 79.4% and the Biodistribution adrenals [3] was 2.2 ± 0.83 % ID/g. For the same molecule, the Biodistribution blood [3] was 0.96 ± 0.24 % ID/g, the Biodistribution bone [3] was 0.38 ± 0.32 % ID/g and the Biodistribution heart [3] was 0.87 ± 0.17 % ID/g. The Biodistribution intestine [3] was 0.35 ± 0.07 % ID/g, the Biodistribution kidneys [3] was 292 ± 45.1 % ID/g and the Biodistribution liver [3] was 0.69 ± 0.13 % ID/g. It also gave a Biodistribution lung [3] of 2.2 ± 0.35 % ID/g, a Biodistribution muscle [3] of 0.33 ± 0.15 % ID/g and a Biodistribution pancreas [3] of 0.63 ± 0.44 % ID/g. It also gave a Biodistribution spleen [3] of 16.6 ± 2.6 % ID/g, a Biodistribution stomach [3] of 0.44 ± 0.23 % ID/g and a Biodistribution tumor [3] of 18.3 ± 7.2 % ID/g.
For “[^19F][^natGa]D/L-Dap-R/S-DOTAGA-rhPSMA7 [rhPSMA7-rac]”, the Biodistribution adrenals [4] was 3.0 ± 0.45 % ID/g, the Biodistribution blood [4] was 1.1 ± 0.03 % ID/g and the Biodistribution bone [4] was 0.91 ± 0.11 % ID/g. It also gave a Biodistribution heart [4] of 0.69 ± 0.07 % ID/g, a Biodistribution intestine [4] of 0.60 ± 0.27 % ID/g and a Biodistribution kidneys [4] of 71.3 ± 13.3 % ID/g. For the same molecule, the Biodistribution liver [4] was 0.67 ± 0.07 % ID/g, the Biodistribution lung [4] was 1.4 ± 0.17 % ID/g and the Biodistribution muscle [4] was 0.36 ± 0.06 % ID/g. For the same molecule, the Biodistribution pancreas [4] was 0.60 ± 0.10 % ID/g, the Biodistribution spleen [4] was 11.1 ± 2.3 % ID/g and the Biodistribution stomach [4] was 0.49 ± 0.07 % ID/g. For the same molecule, the Biodistribution tumor [4] was 10.4 ± 0.67 % ID/g.
